Measured values published in PubChem BioAssay (NCI).
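Protocol summary: plate cells (96-well), add compound at 5 concentrations, incubate 48 h, interpolate endpoints linearly. GI50: concentration for 50% inhibition of growth. Definition used: TGI = concentration required for complete inhibition of growth.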

test system: SK-OV-3 ovarian; assay: DTP human tumour cell line panel, 48 h

Going from CC1(C)OC2C(CO[Si](C)(C)C(C)(C)C)OC(n3c(I)c(C#C[Si](C)(C)C)c(=O)[nH]c3=O)C2O1 (stereo unspecified) to C[C@@H]1C[C@@H]([C@@H](CC2CC(=O)NC(=O)C2)OC(=O)CC(=O)c2ccccc2)C(=O)[C@@H](C)C1, the GI50 falls from > 100000 nM to 411 nM.

Compared with CN(C)CC[C@H](CSc1ccccc1)Nc1ccc(S(=O)(=O)NC(=O)c2ccc(N3CCN(Cc4ccccc4-c4ccc(Cl)cc4)CC3)cc2)cc1[N+](=O)[O-], CN(C)C1CCN(C(=O)c2ccc(NC(=O)Nc3ccc(-c4nc(N5CCOCC5)c5cccn5n4)cc3)cc2)CC1 is 120-fold lower in GI50: 4580 nM for the first, 37.7 nM for the second.

First: COc1ccc(-c2ccc(=O)oc2C#Cc2cc(OC)c(OC)c(OC)c2)cc1O
Second: COC(=O)c1ccc2c(c1)C(=O)c1c-2n(CCCN=[N+]=[N-])c(=O)c2cc(OC)c(OC)cc12
The GI50 of the first is 65-fold lower: 318 nM for the first, 20800 nM for the second.

Going from O=C(/C=C/c1ccc[nH]1)c1ccc(-n2ccc(C(F)(F)F)n2)cc1 to Cc1nc(Nc2cccnc2)sc1C(=O)/C=C/c1ccc(F)cc1, the GI50 falls from > 100000 nM to 3850 nM.

Going from O=C(c1ccco1)c1c(C(F)(F)F)nc2ccc(Cl)cc2[n+]1[O-] to O=c1oc2ccc(-c3ccc(F)cc3F)cc2c(=O)n1-c1cccc(C(F)(F)F)c1, the GI50 falls from > 100000 nM to 1020 nM.

COc1ccc(-c2nnc3n(C)c(=O)c4ccccc4n23)cc1N and COc1ccc2nc3ccccc3c(NCc3ccc(F)cc3)c2c1 are within 1.5-fold of each other in GI50: 3250 nM for the first, 2790 nM for the second.

Going from COc1cc(N=Nc2ccc(O)c3ncccc23)c2ncccc2c1 to CCOC(=O)Nc1cc2c(c(N)n1)N=C(c1ccccc1)CO2, the GI50 falls from 5570 nM to 289 nM (19-fold).

Going from CCn1c(O)c(/C=N/NC(=O)C(C)c2ccc(CC(C)C)cc2)sc1=S (stereo unspecified) to O=c1c(F)cn(Cc2ccc(C34CC5CC(CC(C5)C3)C4)c(O)c2)c(=O)n1Cc1ccc(C23CC4CC(CC(C4)C2)C3)c(O)c1, the GI50 rises from 666 nM to 17900 nM (27-fold).

N=c1c2c(-c3ccccc3)c(-c3ccccc3)n(Cc3ccccc3)c2ncn1C1CCC(O)CC1 (stereo unspecified) was tested, and the GI50 was 2320 nM.

CC1(C)OC2C(CO[Si](C)(C)C(C)(C)C)OC(n3c(I)c(C#C[Si](C)(C)C)c(=O)[nH]c3=O)C2O1 (stereo unspecified) and C[C@@H]1C[C@@H]([C@@H](CC2CC(=O)NC(=O)C2)OC(=O)CC(=O)c2ccccc2)C(=O)[C@@H](C)C1 cannot be ordered by TGI: > 100 µM for the first, > 43.7 µM for the second.

First: CN(C)CC[C@H](CSc1ccccc1)Nc1ccc(S(=O)(=O)NC(=O)c2ccc(N3CCN(Cc4ccccc4-c4ccc(Cl)cc4)CC3)cc2)cc1[N+](=O)[O-]
Second: CN(C)C1CCN(C(=O)c2ccc(NC(=O)Nc3ccc(-c4nc(N5CCOCC5)c5cccn5n4)cc3)cc2)CC1
The TGI of the first is 67-fold higher: 16.9 µM for the first, 0.252 µM for the second.

First: COc1ccc(-c2ccc(=O)oc2C#Cc2cc(OC)c(OC)c(OC)c2)cc1O
Second: COC(=O)c1ccc2c(c1)C(=O)c1c-2n(CCCN=[N+]=[N-])c(=O)c2cc(OC)c(OC)cc12
The TGI of the first is lower: 5.65 µM for the first, > 100 µM for the second.

O=C(/C=C/c1ccc[nH]1)c1ccc(-n2ccc(C(F)(F)F)n2)cc1 and Cc1nc(Nc2cccnc2)sc1C(=O)/C=C/c1ccc(F)cc1 cannot be ordered by TGI: > 100 µM for the first, > 100 µM for the second.

Going from O=C(c1ccco1)c1c(C(F)(F)F)nc2ccc(Cl)cc2[n+]1[O-] to O=c1oc2ccc(-c3ccc(F)cc3F)cc2c(=O)n1-c1cccc(C(F)(F)F)c1, the TGI falls from > 100 µM to 4.54 µM.

First: COc1ccc(-c2nnc3n(C)c(=O)c4ccccc4n23)cc1N
Second: COc1ccc2nc3ccccc3c(NCc3ccc(F)cc3)c2c1
The TGI of the first is higher: > 100 µM for the first, 10.4 µM for the second.

Compared with COc1cc(N=Nc2ccc(O)c3ncccc23)c2ncccc2c1, CCOC(=O)Nc1cc2c(c(N)n1)N=C(c1ccccc1)CO2 is lower in TGI: > 100 µM for the first, 9.4 µM for the second.

Compared with CCn1c(O)c(/C=N/NC(=O)C(C)c2ccc(CC(C)C)cc2)sc1=S (stereo unspecified), O=c1c(F)cn(Cc2ccc(C34CC5CC(CC(C5)C3)C4)c(O)c2)c(=O)n1Cc1ccc(C23CC4CC(CC(C4)C2)C3)c(O)c1 is lower in TGI: > 100 µM for the first, 33.1 µM for the second.

First: N=c1c2c(-c3ccccc3)c(-c3ccccc3)n(Cc3ccccc3)c2ncn1C1CCC(O)CC1 (stereo unspecified)
Second: CC1CC2CCCC(O)=C2C(=O)O1 (stereo unspecified)
The TGI of the first is lower: 15.7 µM for the first, > 100 µM for the second.

test system: MOLT-4 leukemia; assay: DTP human tumour cell line panel, 48 h

First: CC1(C)OC2C(CO[Si](C)(C)C(C)(C)C)OC(n3c(I)c(C#C[Si](C)(C)C)c(=O)[nH]c3=O)C2O1 (stereo unspecified)
Second: C[C@@H]1C[C@@H]([C@@H](CC2CC(=O)NC(=O)C2)OC(=O)CC(=O)c2ccccc2)C(=O)[C@@H](C)C1
The GI50 of the first is 3-fold higher: 1470 nM for the first, 494 nM for the second.

First: CN(C)CC[C@H](CSc1ccccc1)Nc1ccc(S(=O)(=O)NC(=O)c2ccc(N3CCN(Cc4ccccc4-c4ccc(Cl)cc4)CC3)cc2)cc1[N+](=O)[O-]
Second: CN(C)C1CCN(C(=O)c2ccc(NC(=O)Nc3ccc(-c4nc(N5CCOCC5)c5cccn5n4)cc3)cc2)CC1
The GI50 of the first is 8.6-fold higher: 392 nM for the first, 45.7 nM for the second.

Compared with COc1ccc(-c2ccc(=O)oc2C#Cc2cc(OC)c(OC)c(OC)c2)cc1O, COC(=O)c1ccc2c(c1)C(=O)c1c-2n(CCCN=[N+]=[N-])c(=O)c2cc(OC)c(OC)cc12 is 4-fold higher in GI50: 952 nM for the first, 3820 nM for the second.

Going from O=C(/C=C/c1ccc[nH]1)c1ccc(-n2ccc(C(F)(F)F)n2)cc1 to Cc1nc(Nc2cccnc2)sc1C(=O)/C=C/c1ccc(F)cc1, the GI50 falls from 13800 nM to 3200 nM (4.3-fold).

Compared with O=C(c1ccco1)c1c(C(F)(F)F)nc2ccc(Cl)cc2[n+]1[O-], O=c1oc2ccc(-c3ccc(F)cc3F)cc2c(=O)n1-c1cccc(C(F)(F)F)c1 is lower in GI50: > 100000 nM for the first, 2150 nM for the second.

First: COc1ccc(-c2nnc3n(C)c(=O)c4ccccc4n23)cc1N
Second: COc1ccc2nc3ccccc3c(NCc3ccc(F)cc3)c2c1
The GI50 of the first is 2.4-fold higher: 3920 nM for the first, 1660 nM for the second.

Compared with COc1cc(N=Nc2ccc(O)c3ncccc23)c2ncccc2c1, CCOC(=O)Nc1cc2c(c(N)n1)N=C(c1ccccc1)CO2 is 33-fold lower in GI50: 3500 nM for the first, 105 nM for the second.

First: CCn1c(O)c(/C=N/NC(=O)C(C)c2ccc(CC(C)C)cc2)sc1=S (stereo unspecified)
Second: O=c1c(F)cn(Cc2ccc(C34CC5CC(CC(C5)C3)C4)c(O)c2)c(=O)n1Cc1ccc(C23CC4CC(CC(C4)C2)C3)c(O)c1
The GI50 of the first is 12-fold lower: 479 nM for the first, 5850 nM for the second.

With N=c1c2c(-c3ccccc3)c(-c3ccccc3)n(Cc3ccccc3)c2ncn1C1CCC(O)CC1 (stereo unspecified) the GI50 was 75 nM.

Compared with CC1(C)OC2C(CO[Si](C)(C)C(C)(C)C)OC(n3c(I)c(C#C[Si](C)(C)C)c(=O)[nH]c3=O)C2O1 (stereo unspecified), C[C@@H]1C[C@@H]([C@@H](CC2CC(=O)NC(=O)C2)OC(=O)CC(=O)c2ccccc2)C(=O)[C@@H](C)C1 is higher in TGI: 3.54 µM for the first, > 100 µM for the second.

CN(C)CC[C@H](CSc1ccccc1)Nc1ccc(S(=O)(=O)NC(=O)c2ccc(N3CCN(Cc4ccccc4-c4ccc(Cl)cc4)CC3)cc2)cc1[N+](=O)[O-] and CN(C)C1CCN(C(=O)c2ccc(NC(=O)Nc3ccc(-c4nc(N5CCOCC5)c5cccn5n4)cc3)cc2)CC1 are within 1.5-fold of each other in TGI: 2.64 µM for the first, 2.52 µM for the second.

Going from COc1ccc(-c2ccc(=O)oc2C#Cc2cc(OC)c(OC)c(OC)c2)cc1O to COC(=O)c1ccc2c(c1)C(=O)c1c-2n(CCCN=[N+]=[N-])c(=O)c2cc(OC)c(OC)cc12, the TGI falls from > 100 µM to 19.1 µM.

O=C(/C=C/c1ccc[nH]1)c1ccc(-n2ccc(C(F)(F)F)n2)cc1 and Cc1nc(Nc2cccnc2)sc1C(=O)/C=C/c1ccc(F)cc1 cannot be ordered by TGI: > 100 µM for the first, > 100 µM for the second.

Compared with O=C(c1ccco1)c1c(C(F)(F)F)nc2ccc(Cl)cc2[n+]1[O-], O=c1oc2ccc(-c3ccc(F)cc3F)cc2c(=O)n1-c1cccc(C(F)(F)F)c1 is lower in TGI: > 100 µM for the first, 4.97 µM for the second.

Compared with COc1ccc(-c2nnc3n(C)c(=O)c4ccccc4n23)cc1N, COc1ccc2nc3ccccc3c(NCc3ccc(F)cc3)c2c1 is lower in TGI: > 100 µM for the first, 10.4 µM for the second.

COc1cc(N=Nc2ccc(O)c3ncccc23)c2ncccc2c1 and CCOC(=O)Nc1cc2c(c(N)n1)N=C(c1ccccc1)CO2 cannot be ordered by TGI: > 100 µM for the first, > 40.7 µM for the second.

First: CCn1c(O)c(/C=N/NC(=O)C(C)c2ccc(CC(C)C)cc2)sc1=S (stereo unspecified)
Second: O=c1c(F)cn(Cc2ccc(C34CC5CC(CC(C5)C3)C4)c(O)c2)c(=O)n1Cc1ccc(C23CC4CC(CC(C4)C2)C3)c(O)c1
The TGI of the first is higher: > 48.2 µM for the first, 44.4 µM for the second.

First: N=c1c2c(-c3ccccc3)c(-c3ccccc3)n(Cc3ccccc3)c2ncn1C1CCC(O)CC1 (stereo unspecified)
Second: CC1CC2CCCC(O)=C2C(=O)O1 (stereo unspecified)
The TGI of the first is lower: 4.83 µM for the first, > 100 µM for the second.

test system: OVCAR-4 ovarian; assay: DTP human tumour cell line panel, 48 h

First: CC1(C)OC2C(CO[Si](C)(C)C(C)(C)C)OC(n3c(I)c(C#C[Si](C)(C)C)c(=O)[nH]c3=O)C2O1 (stereo unspecified)
Second: COc1ccc(-c2ccc(=O)oc2C#Cc2cc(OC)c(OC)c(OC)c2)cc1O
The GI50 of the first is 12-fold higher: 16.1 µM for the first, 1.3 µM for the second.

Compared with CN(C)CC[C@H](CSc1ccccc1)Nc1ccc(S(=O)(=O)NC(=O)c2ccc(N3CCN(Cc4ccccc4-c4ccc(Cl)cc4)CC3)cc2)cc1[N+](=O)[O-], CN(C)C1CCN(C(=O)c2ccc(NC(=O)Nc3ccc(-c4nc(N5CCOCC5)c5cccn5n4)cc3)cc2)CC1 is 220-fold lower in GI50: 3.04 µM for the first, 0.0137 µM for the second.

Going from O=C(/C=C/c1ccc[nH]1)c1ccc(-n2ccc(C(F)(F)F)n2)cc1 to O=C(c1ccco1)c1c(C(F)(F)F)nc2ccc(Cl)cc2[n+]1[O-], the GI50 rises from 99.1 µM to > 100 µM.

First: COc1ccc(-c2nnc3n(C)c(=O)c4ccccc4n23)cc1N
Second: COc1ccc2nc3ccccc3c(NCc3ccc(F)cc3)c2c1
The GI50 of the first is 7.2-fold higher: 16.3 µM for the first, 2.27 µM for the second.

Going from CC1(C)OC2C(CO[Si](C)(C)C(C)(C)C)OC(n3c(I)c(C#C[Si](C)(C)C)c(=O)[nH]c3=O)C2O1 (stereo unspecified) to COc1ccc(-c2ccc(=O)oc2C#Cc2cc(OC)c(OC)c(OC)c2)cc1O, the TGI rises from 31.8 µM to > 100 µM.

Compared with CN(C)CC[C@H](CSc1ccccc1)Nc1ccc(S(=O)(=O)NC(=O)c2ccc(N3CCN(Cc4ccccc4-c4ccc(Cl)cc4)CC3)cc2)cc1[N+](=O)[O-], CN(C)C1CCN(C(=O)c2ccc(NC(=O)Nc3ccc(-c4nc(N5CCOCC5)c5cccn5n4)cc3)cc2)CC1 is lower in TGI: > 29.6 µM for the first, 0.0721 µM for the second.

O=C(/C=C/c1ccc[nH]1)c1ccc(-n2ccc(C(F)(F)F)n2)cc1 and O=C(c1ccco1)c1c(C(F)(F)F)nc2ccc(Cl)cc2[n+]1[O-] cannot be ordered by TGI: > 100 µM for the first, > 100 µM for the second.

First: COc1ccc(-c2nnc3n(C)c(=O)c4ccccc4n23)cc1N
Second: COc1ccc2nc3ccccc3c(NCc3ccc(F)cc3)c2c1
The TGI of the first is higher: > 100 µM for the first, 8.23 µM for the second.
